Results published in patent US20260125382A1, “COMPOUNDS FOR INHIBITING OR DEGRADING CDK2 AND/OR CDK9 AND MEDICINAL USE THEREOF” (KOREA RESEARCH INSTITUTE OF CHEMICAL TECHNOLOGY, priority 2022, published 2026).

Assays:
[1] = target: T1, CDK2 (Homo sapiens, UniProt P24941); experiment: CDK protein degradation activity (Western blotting), CDK2; assay type: cell-based; settings: MDA-MB-231 cells, 16 hours, Western blot
T1 construct: endogenous in cells; host or cells: MDA-MB-231
In short: (§1)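 Degradation is judged from CDK2 and CDK9 band intensity relative to tubulin and DMSO-treated cells, after 16 h exposure of MDA-MB-231 cells to three compound concentrations (100 nM, 1 μM, 10 μM).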

[2] = target: T2, CDK9 (Homo sapiens, UniProt P50750); experiment: CDK protein degradation activity (Western blotting), CDK9; assay type: cell-based; settings: MDA-MB-231 cells, 16 hours, Western blot
T2 construct: endogenous in cells; host or cells: MDA-MB-231
T2 sequence (P50750 whole entry): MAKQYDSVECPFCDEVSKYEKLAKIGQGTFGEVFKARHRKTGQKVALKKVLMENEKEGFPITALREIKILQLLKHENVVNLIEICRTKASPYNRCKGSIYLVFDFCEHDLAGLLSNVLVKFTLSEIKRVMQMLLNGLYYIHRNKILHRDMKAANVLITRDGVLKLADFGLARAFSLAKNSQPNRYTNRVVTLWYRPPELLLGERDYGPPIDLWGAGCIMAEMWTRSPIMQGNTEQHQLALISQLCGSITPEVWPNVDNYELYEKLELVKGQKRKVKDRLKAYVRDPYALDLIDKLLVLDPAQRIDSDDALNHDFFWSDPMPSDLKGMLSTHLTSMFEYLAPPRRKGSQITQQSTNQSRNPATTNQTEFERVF
In short: as §1

Compound | Enzyme degradation CDK2 (% remaining) @ 0.1 μM [1] | Enzyme degradation CDK2 (% remaining) @ 1 μM [1] | Enzyme degradation CDK2 (% remaining) @ 10 μM [1] | Enzyme degradation CDK9 (% remaining) @ 0.1 μM [2] | Enzyme degradation CDK9 (% remaining) @ 1 μM [2] | Enzyme degradation CDK9 (% remaining) @ 10 μM [2]
O=C1CC[C@H](N2C(=O)C=C(Nc3cccc(CC(=O)N4CCC(CC(=O)N5CCN(c6ccc(Nc7ncnc8c7ncn8[C@H]7C[C@@H](NC(=O)Cc8ccccc8)C7)cc6)CC5)CC4)c3)C2=O)C(=O)N1 [Compound 196, N-((1s,3s)-3-(6-((4-(4-(2-(1-(2-(3-((1-(2,6-dioxopiperidin-3-yl)-2,5-dioxo-2,5-dihydro-1H-pyrrol-3-yl)amino)phenyl)acetyl)piperidin-4-yl)acetyl)piperazin-1-yl)phenyl)amino)-9H-purin-9-yl)cyclobutyl)-2-phenylacetamide] | 80% | 100% | 100% | 30% | 40% | 40%
O=C1CC[C@H](N2C(=O)c3ccc(N4CCC(CC(=O)N5CCN(c6ccc(Nc7ncnc8c7ncn8[C@H]7C[C@@H](NC(=O)Cc8ccccc8)C7)cc6)CC5)CC4)cc3C2=O)C(=O)N1 [Compound 216, N-((1s,3s)-3-(6-((4-(4-(2-(1-(2-(2,6-dioxopiperidin-3-yl)-1,3-dioxoisoindolin-5-yl)piperidin-4-yl)acetyl)piperazin-1-yl)phenyl)amino)-9H-purin-9-yl)cyclobutyl)-2-phenylacetamide] | 40% | 40% | 50% | 50/50/50% | 50/50/50% | 50/50/50%
Cc1cccc(C(=O)N[C@H]2C[C@@H](n3cnc4c(NCc5cccc(OCC6CCN(C(=O)COc7ccc8c(c7)C(=O)N([C@H]7CCC(=O)NC7=O)C8=O)CC6)c5)ncnc43)C2)n1 [Compound 94, N-((1s,3s)-3-(6-((3-((1-(2-((2-(2,6-dioxopiperidin-3-yl)-1,3-dioxoisoindolin-5-yl)oxy)acetyl)piperidin-4-yl)methoxy)benzyl)amino)-9H-purin-9-yl)cyclobutyl)-6-methylpicolinamide] | 80% | 60% | 90% | 50% | 10% | 20%

More lines, now with the values ahead:

Enzyme degradation CDK2 (% remaining) @ 0.1 μM [1] | Enzyme degradation CDK2 (% remaining) @ 1 μM [1] | Enzyme degradation CDK2 (% remaining) @ 10 μM [1] | Enzyme degradation CDK9 (% remaining) @ 0.1 μM [2] | Enzyme degradation CDK9 (% remaining) @ 1 μM [2] | Enzyme degradation CDK9 (% remaining) @ 10 μM [2] | Compound
50/50/50% | 50/50/50% | 50/50/50% | 0/0/0% | 0/0/0% | 0/0/0% | Cc1cccc(C(=O)N[C@H]2C[C@@H](n3cnc4c(NCCC5CCN(CC6CCN(C(=O)C7CCN(c8cc9c(cc8F)C(=O)N(C8CCC(=O)NC8=O)C9=O)CC7)CC6)CC5)ncnc43)C2)n1 (stereo partly drawn) [Compound 450, N-((1s,3s)-3-(6-((2-(1-((1-(1-(2-(2,6-dioxopiperidin-3-yl)-6-fluoro-1,3-dioxoisoindolin-5-yl)piperidin-4-carbonyl)piperidin-4-yl)methyl)piperidin-4-yl)ethyl)amino)-9H-purin-9-yl)cyclobutyl)-6-methylpicolinamide]
30% | 50% | 50% | 0/0/0% | 0/0/0% | 0/0/0% | Cc1cccc(C(=O)NC2CC(n3cnc4c(NCCCN5CCN(CC6CCN(C(=O)CNc7ccc8c(c7)C(=O)N([C@@H]7CCC(=O)NC7=O)C8=O)CC6)CC5)ncnc43)C2)n1 (stereo partly drawn) [Compound 145, N-((1r,3r)-3-(6-((3-(4-((1-((2-(2,6-dioxopiperidin-3-yl)-1,3-dioxoisoindolin-5-yl)glycyl)piperidin-4-yl)methyl)piperazin-1-yl)propyl)amino)-9H-purin-9-yl)cyclobutyl)-6-methylpicolinamide]
